# Assay results reported in patent US9663478B2, “Benzotriazine oxides as drugs targeting Mycobacterium tuberculosis” (priority 2011, dated 2017).
# Where two headings read alike, the source gives them in different places.
# How the values were obtained:
# NRP Mtb H37Rv cells = assay: Low-oxygen recovery assay (LORA) MIC; assay type: cell-based, Mycobacterium tuberculosis; conditions: for MIC: Mycobacterium tuberculosis, H37RV, read-out: LORA MIC - ITR; for LORA MIC: Tables P1, P2, non-replicating M. tuberculosis
# Mtb H37Rv [1] = assay: TB MIC - SRI, resazurin-based microplate assay; assay type: cell-based, Mycobacterium tuberculosis; conditions: for MIC: Mycobacterium tuberculosis, H37RV
# Mtb H37Rv [2] = assay: TB MIC - ITR (UIC), Institute for Tuberculosis Research; assay type: cell-based, Mycobacterium tuberculosis; conditions: for MIC: Mycobacterium tuberculosis, H37RV, read-out: TB MIC - ITR; for MIC / TB MIC - ITR: Tables 1-4; for TB MIC - UIC: Tables P1, P2
# [3] = Tables 1-4 and text, read-out: TB MIC - SRI
# [4] = Tables P1-P3, read-out: TB MIC - SRI
Structure (SMILES),"MIC (NRP Mtb H37Rv cells; NRP Mtb, Tables 1-4 and text) [µg/mL]",MIC (Mtb H37Rv [1]; [3]) [µg/mL],MIC (Mtb H37Rv [2]) [µg/mL],"Vero Tox CC50 (Vero cells; African green monkey, 72 h) [µg/mL]",further results
"[O-][n+]1nc(N[C@@H]2C[C@H]3CC[C@@H]2C3)[n+]([O-])c2ccc(Br)cc21 [Compound 15cm, 3-((1R,2R,4S)-bicyclo[2.2.1]heptan-2-ylamino)-7-bromobenzo[e][1,2,4]triazine 1,4-dioxide]",0.41,0.31,0.36,0.80,–
"COc1ccc2c(c1)[n+]([O-])nc(NC1CCC1)[n+]2[O-] [Compound 15dd, 3-(cyclobutylamino)-7-methoxybenzo[e][1,2,4]triazine 1,4-dioxide]",0.9,0.62,0.96,9.8,–
"COc1ccc2c(c1)[n+]([O-])nc(N[C@@H]1C[C@H]3CC[C@@H]1C3)[n+]2[O-] [Compound 15dm, 3-((1R,2R,4S)-bicyclo[2.2.1]heptan-2-ylamino)-7-methoxybenzo[e][1,2,4]triazine 1,4-dioxide]",1.6,0.62,0.97,>50,–
"CCNc1n[n+]([O-])c2cccc(C)c2[n+]1[O-] [Compound 15ea, Ethyl-(5-methyl-1,4-dioxy-benzo[1,2,4]triazin-3-yl)-amine]",–,–,–,–,"LORA MIC - ITR (NRP Mtb H37Rv cells; NRP Mtb, Tables 1-4 and text): 0.48 µg/mL; MIC, H37Rv (Mtb H37Rv [1]; Table 5): 0.62 µg/mL; TB MIC - SRI (Mtb H37Rv [1]; Tables 1-4 and text): 0.62 µg/mL; TB MIC - ITR (Mtb H37Rv [2]): 0.51 µg/mL; Vero Tox CC50 (Vero cells): 22 µg/mL"
"Cc1cccc2c1[n+]([O-])c(NC1CCC1)n[n+]2[O-] [Compound 15ed, 3-(cyclobutylamino)-5-methylbenzo[e][1,2,4]triazine 1,4-dioxide]",0.43,0.31,0.47,22,–
"[O-][n+]1nc(NC2CCC2)[n+]([O-])c2cc3c(cc21)CCC3 [Compound 15fd, Cyclobutyl-(5,8-dioxy-2,3-dihydro-1H-5,6,8-triaza-cyclopenta[b]naphthalen-7-yl)-amine]",–,–,–,–,"LORA MIC - ITR (NRP Mtb H37Rv cells; NRP Mtb, Tables 1-4 and text): 0.44 µg/mL; MIC, H37Rv (Mtb H37Rv [1]; Table 5): 0.62 µg/mL; TB MIC - SRI (Mtb H37Rv [1]; Tables 1-4 and text): 0.62 µg/mL; TB MIC - ITR (Mtb H37Rv [2]): 0.96 µg/mL; Vero Tox CC50 (Vero cells): 34 µg/mL"
"[O-][n+]1nc(N[C@@H]2C[C@H]3CC[C@@H]2C3)[n+]([O-])c2cc3c(cc21)CCC3 [Compound 15fm, 3-((1R,2R,4S)-bicyclo[2.2.1]heptan-2-ylamino)-7,8-dihydro-6H-indeno[5,6-e][1,2,4]triazine 1,4-dioxide]",0.36,1.2,0.93,>50,–
"COc1cc2c(cc1C)[n+]([O-])nc(NC1CCC1)[n+]2[O-] [Compound 15gd, 3-(cyclobutylamino)-6-methoxy-7-methylbenzo[e][1,2,4]triazine 1,4-dioxide]",2.9,2.5,5.1,>50,–
"COc1cc2c(cc1C)[n+]([O-])nc(N[C@@H]1C[C@H]3CC[C@@H]1C3)[n+]2[O-] [Compound 15gm, 3-((1R,2R,4S)-bicyclo[2.2.1]heptan-2-ylamino)-6-methoxy-7-methylbenzo[e][1,2,4]triazine 1,4-dioxide]",3.5,5,5.6,>50,–
"CCN(CC)c1n[n+]([O-])c2ccccc2[n+]1[O-] [Compound 17o, 3-(diethylamino)benzo[e][1,2,4]triazine 1,4-dioxide]",1.3,0.31,0.46,12,–
"[O-][n+]1nc(N2CCOCC2)[n+]([O-])c2ccccc21 [Compound 17p, 3-morpholinobenzo[e][1,2,4]triazine 1,4-dioxide]",19,2.5 to 5,3.7,5.4,–
"[O-][n+]1nc(N2CCCCC2)[n+]([O-])c2cc3c(cc21)CCC3 [Compound 20r, 3-(piperidin-1-yl)-7,8-dihydro-6H-indeno[5,6-e][1,2,4]triazine 1,4-dioxide]",–,–,0.4,21,"MIC (NRP Mtb H37Rv cells): 0.49 µg/mL; MIC (Mtb H37Rv [1]; Table 5, read-out: MIC, H37Rv): 0.62 µg/mL"
"CN(C)c1n[n+]([O-])c2cc3c(cc2[n+]1[O-])CCC3 [Compound 20s, 3-(dimethylamino)-7,8-dihydro-6H-indeno[5,6-e][1,2,4]triazine 1,4-dioxide]",–,–,0.3,24,"MIC (NRP Mtb H37Rv cells): 1.5 µg/mL; MIC (Mtb H37Rv [1]; Table 5, read-out: MIC, H37Rv): 0.62 µg/mL"
"CN(CCc1ccccc1)c1n[n+]([O-])c2cc3c(cc2[n+]1[O-])CCC3 [Compound 20u, 3-(methyl(phenethyl)amino)-7,8-dihydro-6H-indeno[5,6-e][1,2,4]triazine 1,4-dioxide]",0.44,–,0.24,40,"MIC (Mtb H37Rv [1]; Table 5, read-out: MIC, H37Rv): 0.31 µg/mL"
"O=S1(=O)CCN(c2n[n+]([O-])c3cc4c(cc3[n+]2[O-])CCC4)CC1 [Compound 20v, 3-(thiomorpholinosulfone-1-yl)-7,8-dihydro-6H-indeno[5,6-e][1,2,4]triazine 1,4-dioxide]",–,–,–,–,"LORA MIC - ITR (NRP Mtb H37Rv cells; NRP Mtb, Tables 1-4 and text): 30 µg/mL; TB MIC - SRI (Mtb H37Rv [1]; Tables 1-4 and text): 5.0 µg/mL; TB MIC - ITR (Mtb H37Rv [2]): 15 µg/mL; Vero Tox CC50 (Vero cells): 17 µg/mL"
"CC1CCCCN1c1n[n+]([O-])c2cc3c(cc2[n+]1[O-])CCC3 (stereo not drawn) [Compound 20w, 3-(2-methylpiperidin-1-yl)-7,8-dihydro-6H-indeno[5,6-e][1,2,4]triazine 1,4-dioxide]",0.47,–,0.66,>50,"MIC (Mtb H37Rv [1]; Table 5, read-out: MIC, H37Rv): 1.2 µg/mL"
"CS(=O)(=O)N1CCN(c2n[n+]([O-])c3cc4c(cc3[n+]2[O-])CCC4)CC1 [Compound 20x, 3-(4-(methylsulfonyl)piperazin-1-yl)-7,8-dihydro-6H-indeno[5,6-e][1,2,4]triazine 1,4-dioxide]",15,2.5 to 5,13,>50,TB MIC - SRI (Mtb H37Rv [1]; Tables 1-4 and text): 5.0 µg/mL
"CO[C@H]1/C=C/O[C@@]2(C)Oc3c(C)c(O)c4c(O)c(c(/C=N/N5CCN(C)CC5)c(O)c4c3C2=O)NC(=O)/C(C)=C\C=C\[C@H](C)[C@H](O)[C@@H](C)[C@@H](O)[C@@H](C)[C@H](OC(C)=O)[C@@H]1C [RIF, Rifampin, reference compound]",2,0.003,0.041,>50,–
[O-][n+]1nc(NC2CC2)[n+]([O-])c2ccc(F)cc21 [SRI-012274],–,–,–,–,"LORA MIC (NRP Mtb H37Rv cells): 2.8 µg/mL; MIC (Mtb H37Rv [1]; [4]): 0.312 µg/mL; TB MIC - UIC (Mtb H37Rv [2]): 0.93 µg/mL; VERO Tox-SRI (Vero cells; African green monkey, 72 h): 3.5"
[O-][n+]1nc(NC2CCCCC2)[n+]([O-])c2ccc(F)cc21 [SRI-012275],–,–,–,–,"LORA MIC (NRP Mtb H37Rv cells): 0.47 µg/mL; MIC (Mtb H37Rv [1]; [4]): 0.625 µg/mL; TB MIC - UIC (Mtb H37Rv [2]): 0.68 µg/mL; VERO Tox-SRI (Vero cells; African green monkey, 72 h): <2.5"
[O-][n+]1nc(NC2CCC2)[n+]([O-])c2ccc(F)cc21 [SRI-012276],–,–,–,–,"LORA MIC (NRP Mtb H37Rv cells): 0.88 µg/mL; MIC (Mtb H37Rv [1]; [4]): 0.312 µg/mL; TB MIC - UIC (Mtb H37Rv [2]): 0.4 µg/mL; VERO Tox-SRI (Vero cells; African green monkey, 72 h): 2.5"
[O-][n+]1nc(NC2CCCC2)[n+]([O-])c2ccc(F)cc21 [SRI-012277],–,–,–,–,"LORA MIC (NRP Mtb H37Rv cells): 0.34 µg/mL; MIC (Mtb H37Rv [1]; [4]): 0.312 µg/mL; TB MIC - UIC (Mtb H37Rv [2]): 0.33 µg/mL; VERO Tox-SRI (Vero cells; African green monkey, 72 h): 2.3"
CCC(COC)Nc1n[n+]([O-])c2cc(F)ccc2[n+]1[O-] (stereo not drawn) [SRI-012278],–,–,–,–,"LORA MIC (NRP Mtb H37Rv cells): 1.87 µg/mL; MIC (Mtb H37Rv [1]; [4]): 5 µg/mL; TB MIC - UIC (Mtb H37Rv [2]): 2 µg/mL; VERO Tox-SRI (Vero cells; African green monkey, 72 h): 6.3"
CCC(CC)Nc1n[n+]([O-])c2cc(F)ccc2[n+]1[O-] [SRI-012279],–,–,–,–,"LORA MIC (NRP Mtb H37Rv cells): 0.71 µg/mL; MIC (Mtb H37Rv [1]; [4]): 1.25 µg/mL; TB MIC - UIC (Mtb H37Rv [2]): 0.49 µg/mL; VERO Tox-SRI (Vero cells; African green monkey, 72 h): 4.4"
